From publication PMC5694373 (European journal of pharmaceutical sciences : official …, 2017)
Where “and” joins values, the source holds several entries; their conditions need not be identical. Identical values can stand only once.

Experiments:
[1] = system: mixture of 99% MX/09 and 1% oseltamivir-resistant HK/09-H275Y; format: cell-based, influenza A virus H1N1
[2] = system: oseltamivir-resistant HK/09-H275Y influenza; format: cell-based, influenza A virus H1N1
[3] = biological target: neuraminidase of oseltamivir-resistant pandemic 2009 H1N1 A/Hong Kong/2369/2009 [H275Y] (HK/09-H275Y) (Influenza A virus, UniProt C6KQ69); assay: biochemical; format: biochemical
[4] = system: HK/09-H275Y subpopulation in 99% MX/09 + 1% HK/09-H275Y infection; format: cell-based, influenza A virus H1N1
[5] = biological target: neuraminidase of zanamivir-resistant seasonal 2008 H1N1 A/Brazil/1633/2008 [Q136K] (BZ/08-Q136K) (Influenza A virus, UniProt A4GBY0, Q136K); format: biochemical

Molecule	viral burden lower than the no-treatment control [1]	reduction of peak viral titers [2]	IC50 [3]	HK/09-H275Y subpopulations [4]	effect on viral burden relative to no-treatment control [1]	IC50 values (95% Confidence Interval) [3]	IC50 values (95% Confidence Interval) [5]
CC(=O)N[C@H]1[C@H]([C@H](O)[C@H](O)CO)OC(C(=O)O)=C[C@@H]1N=C(N)N [Zanamivir, zanamivir]	at least 2 log10	approximately 4 log10 PFU/ml	7.22 pM				
Oseltamivir carboxylate				76% and 83%	peak viral load equivalent to that of the no-treatment control by 72 h	15.30 (10.16 – 20.44) ng/ml	0.0028 (0.0005 – 0.0051) ng/ml
